From article PMC3736441 (Marine Drugs, 2013)
pIC50: −log10 of the molar value.

Experiments:
[1] = biological target: α-acetylcholinesterase (AChE) (Homo sapiens, UniProt P22303); assay: biochemical; assay type: biochemical; settings: phosphate buffer pH 7.0, 37 °C, triplicate; for pIC50: read-out: Inhibition of AChE IC50; for all read-outs here: key: '-' as 'no action'
Description: α-Acetylcholinesterase inhibitory activity was assayed using 50 mM phosphate buffer (pH 7.0). […] 10 μL of sample solution and 10 μL of α-acetylcholinesterase solution (2 units mL^−1, in the phosphate buffer at pH 7.0) were added to 960 μL of phosphate buffer and incubated at 37 °C for 30 min, and then 20 μL of substrate were added to initiate the enzyme reaction. The enzyme reaction was carried out at 37 °C for 30 min. Product was monitored spectrophotometrically by measuring the absorbance (λ = 400 nm). Huperzine A was used as reference standard inhibitor for comparison. Dose-response curves were obtained by performing assays in the presence of increasing concentrations of inhibitors. IC50 value was determined by interpolation of the dose-response curves. For all tests, the inhibition assays were performed in triplicate.

[2] = test system: cervix carcinoma cells (Hela); assay: in vitro; settings: Hela cells, MTT
Description: (§1) IC50 of these compounds were determined by the MTT assay (see Table 2).
(§2) The cytotoxic activities were determined using MCF-7, A549, Hela, KB human tumor cells by the MTT colorimetric method. […] Subsequently 20 μL of MTT solution (5 mg/mL) were added to each well and mixed, the cells were then incubated for an additional 4 h. Culture supernatant were removed, 150 μL of DMSO were added to each well to fully dissolve the MTT—formazan crystals. Cell growth inhibition was determined by measuring the absorbance (Abs) at λ = 570 nm using a microplate reader and calculated according to the following equation: Growth inhibition = (1 − OD of treated cells/OD of control cells) × 100% (1)
(§3) The half maximal inhibitory concentrations (IC50) were obtained from linear regression analysis of the concentration-response curves plotted for each tested compound (Bliss’s software). Results were expressed as the mean value of triplicate data points.

[3] = test system: human breast cancer cells (MCF-7); assay: in vitro; settings: MCF-7 cells, MTT
Description: as §1, §2, §3

lung cancer cells (A549) = settings: MTT
Description: as §1, §2, §3

[4] = test system: human nasopharyngeal carcinoma cells (KB); settings: MTT
Description: as §1, §2, §3

in vitro = settings: human
Description: as §1, §2, §3

Chain of α-acetylcholinesterase (AChE) (P22303 32-614): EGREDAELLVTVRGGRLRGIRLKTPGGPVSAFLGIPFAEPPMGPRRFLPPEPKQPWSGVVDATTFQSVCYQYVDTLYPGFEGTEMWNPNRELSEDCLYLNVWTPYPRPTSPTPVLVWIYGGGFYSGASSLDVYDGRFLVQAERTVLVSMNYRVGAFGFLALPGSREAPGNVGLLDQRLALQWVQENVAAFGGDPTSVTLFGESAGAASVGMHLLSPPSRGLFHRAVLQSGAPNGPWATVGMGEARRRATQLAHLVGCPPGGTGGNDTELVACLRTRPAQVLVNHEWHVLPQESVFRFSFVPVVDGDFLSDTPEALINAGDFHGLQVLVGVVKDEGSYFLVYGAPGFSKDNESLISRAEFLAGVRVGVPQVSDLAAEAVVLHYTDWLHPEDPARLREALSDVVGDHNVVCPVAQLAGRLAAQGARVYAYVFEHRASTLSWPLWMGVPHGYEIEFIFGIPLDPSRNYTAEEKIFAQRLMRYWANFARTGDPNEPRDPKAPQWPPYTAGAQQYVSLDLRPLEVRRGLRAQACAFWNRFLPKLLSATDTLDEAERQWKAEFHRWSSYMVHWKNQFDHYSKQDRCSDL

COc1cc(OC)c2c(c1O)C(=O)c1sc(C(C)O)cc1C2=O (centres unmarked) [Compound 1, 8-hydroxy-2-[1-hydroxyethyl]-5,7-dimethoxynaphtho[2,3-b] thiophene-4,9-dione]
Inhibition of AChE IC50 [1]: -
Cytotoxicity IC50 Hela [2]: -
cytotoxic / inhibitory activity against Hela (in words) [2]: no inhibitory activities
Cytotoxicity IC50 MCF-7 [3]: -
cytotoxic / inhibitory activity against MCF-7 (in words) [3]: no inhibitory activities
Cytotoxicity IC50 A549 (lung cancer cells (A549)): -
cytotoxic / inhibitory activity against A549 (in words) (lung cancer cells (A549)): no inhibitory activities
Cytotoxicity IC50 KB [4]: -
cytotoxic / inhibitory activity against KB (in words) [4]: no inhibitory activities

COC1=CC(=O)c2c(O)c(C)c3c(c2C1=O)O[C@@H](C)C3 [Compound 2, anhydrojavanicin]
pIC50 [1]: 5.70
Cytotoxicity IC50 Hela [2]: -
cytotoxic / inhibitory activity against Hela (in words) [2]: no inhibitory activities
Cytotoxicity IC50 MCF-7 [3]: -
cytotoxic / inhibitory activity against MCF-7 (in words) [3]: no inhibitory activities
Cytotoxicity IC50 A549 (lung cancer cells (A549)): -
cytotoxic / inhibitory activity against A549 (in words) (lung cancer cells (A549)): no inhibitory activities
Cytotoxicity IC50 KB [4]: -
cytotoxic / inhibitory activity against KB (in words) [4]: no inhibitory activities

COc1cc(OC)c2c(c1O)C(=O)c1cc(C)ncc1C2=O [Compound 3, 8-O-methylbostrycoidin]
pIC50 [1]: 5.17
Cytotoxicity IC50 Hela [2]: -
cytotoxic / inhibitory activity against Hela (in words) [2]: no inhibitory activities
Cytotoxicity IC50 MCF-7 [3]: -
cytotoxic / inhibitory activity against MCF-7 (in words) [3]: no inhibitory activities
Cytotoxicity IC50 A549 (lung cancer cells (A549)): -
cytotoxic / inhibitory activity against A549 (in words) (lung cancer cells (A549)): no inhibitory activities
Cytotoxicity IC50 KB [4]: -
cytotoxic / inhibitory activity against KB (in words) [4]: no inhibitory activities

COc1cc(OC)c2c(c1O)C(=O)C(CC(C)=O)=C(C)C2=O [Compound 4, 8-O-methyljavanicin]
Inhibition of AChE IC50 [1]: -
Cytotoxicity IC50 Hela [2]: -
cytotoxic / inhibitory activity against Hela (in words) [2]: no inhibitory activities
Cytotoxicity IC50 MCF-7 [3]: -
cytotoxic / inhibitory activity against MCF-7 (in words) [3]: no inhibitory activities
Cytotoxicity IC50 A549 (lung cancer cells (A549)): -
cytotoxic / inhibitory activity against A549 (in words) (lung cancer cells (A549)): no inhibitory activities
Cytotoxicity IC50 KB [4]: -
cytotoxic / inhibitory activity against KB (in words) [4]: no inhibitory activities

CCc1c(OC)cc2c(c1O)C(=O)C[C@H](O)[C@H]2O [Compound 5, botryosphaerone D]
Inhibition of AChE IC50 [1]: -
Cytotoxicity IC50 Hela [2]: -
cytotoxic / inhibitory activity against Hela (in words) [2]: no inhibitory activities
Cytotoxicity IC50 MCF-7 [3]: -
cytotoxic / inhibitory activity against MCF-7 (in words) [3]: no inhibitory activities
Cytotoxicity IC50 A549 (lung cancer cells (A549)): -
cytotoxic / inhibitory activity against A549 (in words) (lung cancer cells (A549)): no inhibitory activities
Cytotoxicity IC50 KB [4]: -
cytotoxic / inhibitory activity against KB (in words) [4]: no inhibitory activities

CCc1c(OC)cc2c(c1O)C(=O)C(OC)=CC2=O [Compound 6, 6-ethyl-5-hydroxy-3,7-dimethoxynaphthoquinone]
Inhibition of AChE IC50 [1]: -
Cytotoxicity IC50 Hela [2]: -
cytotoxic / inhibitory activity against Hela (in words) [2]: no inhibitory activities
Cytotoxicity IC50 MCF-7 [3]: -
cytotoxic / inhibitory activity against MCF-7 (in words) [3]: no inhibitory activities
Cytotoxicity IC50 A549 (lung cancer cells (A549)): -
cytotoxic / inhibitory activity against A549 (in words) (lung cancer cells (A549)): no inhibitory activities
Cytotoxicity IC50 KB [4]: -
cytotoxic / inhibitory activity against KB (in words) [4]: no inhibitory activities

CC(C)[C@@H](C)/C=C/[C@@H](C)[C@H]1CC[C@H]2C3=CC(=O)[C@@]4(O)C[C@@H](O)CC[C@]4(C)[C@H]3CC[C@]12C [Compound 7, 3β,5α-dihydroxy-(22E,24R)-ergosta-7,22-dien-6-one]
Inhibition of AChE IC50 [1]: -
cytotoxic / inhibitory activity against Hela (in words) [2]: strong or moderate cytotoxic activies
cytotoxic / inhibitory activity against MCF-7 (in words) [3]: strong or moderate cytotoxic activies
cytotoxic / inhibitory activity against A549 (in words) (lung cancer cells (A549)): strong or moderate cytotoxic activies
cytotoxic / inhibitory activity against KB (in words) [4]: strong or moderate cytotoxic activies

CC(C)[C@@H](C)/C=C/[C@@H](C)[C@H]1CC[C@@]2(O)C3=CC(=O)[C@@]4(O)C[C@@H](O)CC[C@]4(C)[C@H]3CC[C@]12C [Compound 8, 3β,5α,14α-trihydroxy-(22E,24R)-ergosta-7,22-dien-6-one]
Inhibition of AChE IC50 [1]: -
cytotoxic / inhibitory activity against Hela (in words) [2]: weak inhibitory activities
cytotoxic / inhibitory activity against MCF-7 (in words) [3]: weak inhibitory activities
pIC50 (in vitro; Cytotoxicity IC50 Hela, Hela cells, MTT): 4.60
pIC50 (in vitro; Cytotoxicity IC50 MCF-7, MCF-7 cells, MTT): 4.61
cytotoxic / inhibitory activity against A549 (in words) (lung cancer cells (A549)): weak inhibitory activities
cytotoxic / inhibitory activity against KB (in words) [4]: weak inhibitory activities

CC(=O)O[C@H]1C[C@H]2[C@H]3[C@H]([C@@H](O)C[C@]2(C)[C@H]1[C@H](C)/C=C/[C@H](C)C(C)C)[C@@]1(C)CC[C@H](O)C[C@@H]1C(=O)[C@@H]3O [Compound 9, NGA0187]
pIC50 [1]: 5.72
Cytotoxicity IC50 Hela [2]: -
cytotoxic / inhibitory activity against Hela (in words) [2]: no inhibitory activities
Cytotoxicity IC50 MCF-7 [3]: -
cytotoxic / inhibitory activity against MCF-7 (in words) [3]: no inhibitory activities
Cytotoxicity IC50 A549 (lung cancer cells (A549)): -
cytotoxic / inhibitory activity against A549 (in words) (lung cancer cells (A549)): no inhibitory activities
Cytotoxicity IC50 KB [4]: -
cytotoxic / inhibitory activity against KB (in words) [4]: no inhibitory activities

COc1cccc2c1C(=O)c1c(O)c3c(c(O)c1C2=O)C[C@@](O)(C(=O)CO)C[C@@H]3O[C@H]1C[C@H](N)[C@@H](O)[C@H](C)O1 [Epirubicin, reference compound]
pIC50 (in vitro; Cytotoxicity IC50 Hela): 5.97
pIC50 (in vitro; Cytotoxicity IC50 MCF-7): 6.38
